This is an account of results in patent US20130053387A1, “DESAZADESFERROTHIOCIN AND DESAZADESFERROTHIOCIN POLYETHER ANALOGUES AS METAL CHELATION AGENTS” (FerroKin BioScience, Inc., priority 2010, published 2013).

In brackets after ≈: the same amount, converted by molar mass. Where two headings read alike, the source gives them in different places.

Details of data set [1]: concentration or dose not given beside the values. As to conditions: cited from earlier work.
The conditions of data set [2]: rats, 300 μmol/kg intraperitoneally immediately after uranyl acetate; cited from earlier work.
Data set [3] is described as follows: Solubility determination in PBS by LC/MS/MS. As to conditions: for solubility at 2 h: kinetic from dmso stock.
Details of data set [4]: concentration or dose not given beside the values. As to conditions: cited from earlier work. This is another data set of the same source.
A short description of data set [5]: physchem. As for the experimental part: Measurements were taken via LC/MS.
Stir bars were removed and samples centrifuged at 15,000 g for 15 minutes to separate the phases, and pipette and syringe were used to remove the upper (octanol) and lower (buffer) phases to empty tubes, respectively. Aliquots of 5 ni, were taken from upper phases and diluted with 495 ni, of methanol. Aliquots of 50 ni, were taken from lower phases and diluted with 450 ni, of methanol. Reference solutions of progesterone or metopolol were also prepared and tested as standards.

Data set [6] is described as follows: physchem. As to conditions: 25 °C, kinetic from dmso stock.
Where [7] appears, read: PBS pH 4.0, 25 °C, pH 4, aqueous buffer.
[8] abbreviates: PBS pH 7.4, 25 °C, pH 7.4, aqueous buffer.

Take `COCCOCCOCCOc1ccc(C2=N[C@@](C)(C(=O)O)CS2)c(O)c1` [Example B, (S)-2-(2-hydroxy-4-(2-(2-(2-methoxyethoxy)ethoxy)ethoxy)phenyl)-4-methyl-4,5-dihydrothiazole-4-carboxylic acid]: the “Rodent ICE” value in data set [1] is listed as 5.5 ± 1.9%. Also, in data set [2], the “% Dose Cleared” value is recorded as 22%, the “Uranium Excretion” value was 626 ± 123 µg/kg and the “Uranium Excretion vs. Control” value was 2.2. The molecule further gave a solubility at 2 h in data set [3] (setting [7]) of 307 µM (≈ 123 µg/mL). Besides, the solubility at 2 h in data set [3] (setting [8]) stood at 313 µM (≈ 125 µg/mL). Moreover, the “Primate ICE” value in data set [4] was 25.4 ± 7.4%. This molecule also yielded a logD at 1 h in “physchem [5]” (pH 7.4) of -1.45.

Regarding `COCCOCCOc1cccc(C2=NC(C)(C(=O)O)CN2)c1O` (centres unmarked) [Example 5, 2-(2-hydroxy-3-(2-(2-methoxyethoxy)ethoxy)phenyl)-4-methyl-4,5-dihydro-1H-imidazole-4-carboxylic acid], the solubility at 2 h in data set [3] (setting [7]) was found to be 306 µM (≈ 104 µg/mL); in data set [3] (setting [8]), 311 µM (≈ 105 µg/mL). In addition, the logD at 1 h in “physchem [5]” (pH 7.4) was -2.09.

Take `COCCOCCOCCOCCOc1cccc(C2=N[C@@](C)(C(=O)O)CS2)c1O` [Example F, (S)-2-(3-(2,5,8,11-tetraoxamidecan-13-yloxy)-2-hydroxyphenyl)-4-methyl-4,5-dihydrothiazole-4-carboxylic acid]: the “Rodent ICE” value in data set [1] is 12.4 ± 1.7%. The “Primate ICE” value in data set [4] was 9.6 ± 4.9%.

With `COCCOCCOc1ccc(C2=NC(C)(C(=O)O)CN2)c(O)c1` (centres unmarked) [Example 3, 2-(2-hydroxy-4-(2-(2-methoxyethoxy)ethoxy)phenyl)-4-methyl-4,5-dihydro-1H-imidazole-4-carboxylic acid], the solubility at 2 h is 302 µM (≈ 102 µg/mL) in data set [3] (setting [7]) and 299 µM (≈ 101 µg/mL) in data set [3] (setting [8]). Further, the pH-dependent lipophilicity (logD) at 1 h in the data set “physchem [5]” (pH 7.4) was -1.87.

In the case of `COCCOCCOCCOc1ccc(C2=NC(C)(C(=O)O)CO2)c(O)c1` (centres unmarked) [Example 2, 2-(2-hydroxy-4-(2-(2-(2-methoxyethoxy)ethoxy)ethoxy)phenyl)-4-methyl-4,5-dihydrooxazole-4-carboxylic acid], the solubility at 2 h in data set [3] (setting [7]) was 297 µM (≈ 114 µg/mL); in data set [3] (setting [8]), 291 µM (≈ 112 µg/mL). In “physchem [5]” (pH 7.4), this molecule came in with a logD at 1 h of -1.77.

As for `COCCOCCOCCOc1cccc(C2=NC(C)(C(=O)O)CN2)c1O` (centres unmarked) [Example 6, 2-(2-hydroxy-3-(2-(2-(2-methoxyethoxy)ethoxy)ethoxy)phenyl)-4-methyl-4,5-dihydro-1H-imidazole-4-carboxylic acid], the solubility at 2 h in data set [3] (setting [7]) and in data set [3] (setting [8]) was 311 µM (≈ 119 µg/mL) in each case. In addition, in “physchem [5]” (pH 7.4), the logD at 1 h was -1.98.

`O=C(O)Cc1ccccc1Nc1c(Cl)cccc1Cl` [diclofenac] had a solubility at 2 h in data set [3] (setting [7]) of 7.47 µM (≈ 2.21 µg/mL). Also, the “Solubility at pH 7.4” value in data set [3] (PBS pH 7.4, 25° C., 2 hours, assay upper limit 300 μM) was found to be 273.38 μM.

Take `COCCOCCOc1ccc(C2=N[C@@](C)(C(=O)O)CS2)c(O)c1` [Example A, (S)-2-(2-hydroxy-4-(2-(2-methoxyethoxy)ethoxy)phenyl)-4-methyl-4,5-dihydrothiazole-4-carboxylic acid]: the “Rodent ICE” value in data set [1] is reported as 26.7 ± 4.7%. For the same molecule, the solubility at 2 h came out at 309 µM (≈ 110 µg/mL) in “physchem [6]” (pH 4, aqueous buffer) and 305 µM (≈ 108 µg/mL) in “physchem [6]” (pH 7.4, aqueous buffer). In addition, the “Primate ICE” value was 26.3 ± 9.9% in data set [4] (capsule) and 28.7 ± 12.4% in data set [4] (sodium salt). In addition, the logD at 1 h in “physchem [5]” (pH 7.4) was -1.14.

With `COCCOCCOCCOc1ccc(-n2ccc(C(=O)O)n2)c(O)c1` [Example 8, 1-(2-hydroxy-4-(2-(2-(2-methoxyethoxy)ethoxy)ethoxy)phenyl)-1H-pyrazole-3-carboxylic acid], the values for the solubility at 2 h in data set [3] (setting [7]) and in data set [3] (setting [8]) were 300 µM (≈ 110 µg/mL) and 298 µM (≈ 109 µg/mL), respectively. Further, in the data set “physchem [5]” (pH 7.4), the logD at 1 h was -2.14.

In the case of `COCCOCCOc1cccc(C2=N[C@@](C)(C(=O)O)CS2)c1O` [Example D, (S)-2-(2-hydroxy-3-(2-(2-methoxyethoxy)ethoxy)phenyl)-4-methyl-4,5-dihydrothiazole-4-carboxylic acid], the “Rodent ICE” value in data set [1] is listed as 15.1 ± 2.0%. For the same molecule, in data set [4], the “Primate ICE” value is reported as 22.5 ± 6.4%.

Take `COCCOCCOCCOc1cccc(C2=N[C@@](C)(C(=O)O)CS2)c1O` [Example E, (S)-2-(2-hydroxy-3-(2-(2-(2-methoxyethoxy)ethoxy)ethoxy)phenyl)-4-methyl-4,5-dihydrothiazole-4-carboxylic acid]: the “Rodent ICE” value in data set [1] is 10.6 ± 4.4%b. Moreover, the “Primate ICE” value in data set [4] was 23.0 ± 4.1%.

As for `COCCOCCOCCOc1ccc(C2=NC(C)(C(=O)O)CN2)c(O)c1` (centres unmarked) [Example 4, 2-(2-hydroxy-4-(2-(2-(2-methoxyethoxy)ethoxy)ethoxy)phenyl)-4-methyl-4,5-dihydro-1H-imidazole-4-carboxylic acid], the solubility at 2 h in data set [3] (setting [7]) stood at 313 µM (≈ 120 µg/mL); in data set [3] (setting [8]) it was 316 µM (≈ 121 µg/mL). Further, in the data set “physchem [5]” (pH 7.4), the logD at 1 h is -2.13.

As to `COCCOCCOc1ccc(-n2ccc(C(=O)O)n2)c(O)c1` [Example 7, 1-(2-hydroxy-4-(2-(2-methoxyethoxy)ethoxy)phenyl)-1H-pyrazole-3-carboxylic acid], the values for the solubility at 2 h in data set [3] (setting [7]) and in data set [3] (setting [8]) were 294 µM (≈ 94.7 µg/mL) and 297 µM (≈ 95.7 µg/mL), respectively. For the same molecule, the log distribution coefficient (logD) at 1 h in the data set “physchem [5]” (pH 7.4) is -2.24.

With `COCCc1ccc(OCC(O)CNC(C)C)cc1` (centres unmarked) [metopolol], in “physchem [5]” (pH 7.4), the LogD is listed as −0.27.

On to `COCCOCCOCCOCCOc1ccc(C2=N[C@@](C)(C(=O)O)CS2)c(O)c1` [Example C, (S)-2-(4-(2,5,8,11-tetraoxamidecan-13-yloxy)-2-hydroxyphenyl)-4-methyl-4,5-dihydrothiazole-4-carboxylic acid], for which the “Rodent ICE” value in data set [1] was 12.0 ± 1.5%. For the same molecule, the “Primate ICE” value in data set [4] is listed as 9.8 ± 1.9%.

`CC(=O)[C@H]1CC[C@H]2[C@@H]3CCC4=CC(=O)CC[C@]4(C)[C@H]3CC[C@]12C` [progesterone]: the pH-dependent lipophilicity (logD) at 1 h in the data set “physchem [5]” stood at 3.71.

Consider `COCCOCCOc1ccc(C2=NC(C)(C(=O)O)CO2)c(O)c1` (centres unmarked) [Example 1, 2-(2-hydroxy-4-(2-(2-methoxyethoxy)ethoxy)phenyl)-4-methyl-4,5-dihydrooxazole-4-carboxylic acid], for which the solubility at 2 h in data set [3] (setting [7]) turned out to be 309 µM (≈ 105 µg/mL); in data set [3] (setting [8]), 312 µM (≈ 106 µg/mL). Further, the logD at 1 h in the data set “physchem [5]” (pH 7.4) is -1.39.

A word on the solubility: it is the dissolved amount per volume that the medium holds. A word on the logD: it is the decadic logarithm of the distribution of all forms, ionised or not, between an organic phase and buffer at a given pH. One may read the Solubility as the concentration that dissolves in the medium under given conditions. One may read the LogD as lipophilicity at a set pH, counting ionised and neutral species.
